# In BindingDB's records for doi:10.1016/j.bmcl.2004.03.090 (Johnson & Johnson Pharmaceutical Research & Development, 2004):
# Biological target: Glycogen synthase kinase-3 beta (Oryctolagus cuniculus)
# Assay: Inhibitory concentration against rabbit glycogen synthase kinase-3 beta using protein phosphatase inhibitor-2 as substrate
row,SMILES,IC50
1,"CCn1cc(C2=C(c3cn(CCCO)c4ncccc34)C(=O)NC2=O)c2cccnc21 [3-(1-Ethyl-1H-pyrrolo[2,3-b]pyridin-3-yl)-4-[1-(3-hydroxy-propyl)-1H-pyrrolo[2,3-b]pyridin-3-yl]-pyrrole-2,5-dione]",65 nM
2,"O=C1NC(=O)C(c2cn(CCCO)c3ncccc23)=C1c1cccc2ccccc12 [3-[1-(3-Hydroxy-propyl)-1H-pyrrolo[2,3-b]pyridin-3-yl]-4-naphthalen-1-yl-pyrrole-2,5-dione]",31 nM
3,"COc1ccccc1C1=C(c2cn(CCCNS(C)(=O)=O)c3ncccc23)C(=O)NC1=O [N-(3-{3-[4-(2-Methoxy-phenyl)-2,5-dioxo-2,5-dihydro-1H-pyrrol-3-yl]-pyrrolo[2,3-b]pyridin-1-yl}-propyl)-methanesulfonamide]",14 nM
4,"O=C1NC(=O)C(c2cn(CCCO)c3ncccc23)=C1c1ccc(F)cc1Cl [3-(2-Chloro-4-fluoro-phenyl)-4-[1-(3-hydroxy-propyl)-1H-pyrrolo[2,3-b]pyridin-3-yl]-pyrrole-2,5-dione]",6 nM
5,"O=C1NC(=O)C(c2cn(CCCO)c3ncccc23)=C1c1ccccn1 [3-[1-(3-Hydroxy-propyl)-1H-pyrrolo[2,3-b]pyridin-3-yl]-4-pyridin-2-yl-pyrrole-2,5-dione]",480 nM
6,"COc1ccccc1C1=C(c2cn(CCCNC=O)c3ncccc23)C(=O)NC1=O [N-(3-{3-[4-(2-Methoxy-phenyl)-2,5-dioxo-2,5-dihydro-1H-pyrrol-3-yl]-pyrrolo[2,3-b]pyridin-1-yl}-propyl)-formamide]",8 nM
7,COc1ccccc1C1=C(c2cn(CCCNS(N)(=O)=O)c3ncccc23)C(=O)NC1=O [3-(7-Azaindolyl)-4-arylmaleimide analogue],20 nM
